Source: US9540343B2 (Gilead Sciences, Inc., priority 2011, dated 2017)

Columns and labels:
[1] = system: HIV-IIIb; test: Test A: Antiviral assay in MT4 cells; assay type: cell-based, HIV-1; conditions: Human immunodeficiency virus 1, IIIB, MT4, 120 h, read-out: % inhibition at 2 μM, percent inhibition of virus-induced cell killing, from dose response curve at 2 uM drug; MT-4 cells infected with HIV-IIIb, 5 days, CellTiter-Glo
[2] = in vitro; conditions: human, uninfected MT-4 cells, CC50 (nM), same protocol as Test A, CellTiter-Glo
In short: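 Cytoprotection read-out: CellTiter-Glo chemiluminescence after 5 days at 37 °C of HIV-IIIb-infected MT-4 cells (m.o.i. 0.003) with compound in 10-point 3-fold dilutions, quadruplicate, 10% FBS. Cytotoxicity (CC50) measured identically without virus.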

Structure (SMILES)	inhibition at 2 µM [1] [%]	CC50 at 5 days [2] [nM]
NC(=O)c1cc(-c2cccnc2[C@H](Cc2cc(F)cc(F)c2)NC(=O)Cn2nc(C(F)(F)F)c3c2CC(F)(F)CC3)ccc1F [Example 387, (S)-5-(2-(1-(2-(6,6-difluoro-3-(trifluoromethyl)-4,5,6,7-tetrahydro-1H-indazol-1-yl)acetamido)-2-(3,5-difluorophenyl)ethyl)pyridin-3-yl)-2-fluorobenzamide]	61	21200
CN1CCc2c(C(F)(F)F)nn(CC(=O)N[C@@H](Cc3cc(F)cc(F)c3)c3ncccc3-c3ccc(F)c(C(N)=O)c3)c2C1 [Example 388, (S)-5-(2-(2-(3,5-difluorophenyl)-1-(2-(6-methyl-3-(trifluoromethyl)-4,5,6,7-tetrahydro-1H-pyrazolo[3,4-c]pyridin-1-yl)acetamido)ethyl)pyridin-3-yl)-2-fluorobenzamide]	54	> 53200
CC(=O)c1cn(CC(=O)N[C@@H](Cc2cc(F)cc(F)c2)c2ncccc2-c2ccc(F)c(C(N)=O)c2)nc1C(F)(F)F [Example 389B, (S)-5-(2-(1-(2-(4-acetyl-3-(trifluoromethyl)-1H-pyrazol-1-yl)acetamido)-2-(3,5-difluorophenyl)ethyl)pyridin-3-yl)-2-fluorobenzamide]	2	> 53200
NC(=O)c1cc(-c2cccnc2C(Cc2cc(F)cc(F)c2)NC(=O)Cn2nc(C(F)F)c3c2C(F)(F)CCC3F)ccc1F (stereo not drawn) [Example 390, 5-(2-(1-(2-(3-(difluoromethyl)-4,7,7-trifluoro-4,5,6,7-tetrahydro-1H-indazol-1-yl)acetamido)-2-(3,5-difluorophenyl)ethyl)pyridin-3-yl)-2-fluorobenzamide]	99	21600
NC(=O)c1cc(-c2cccnc2[C@H](Cc2cc(F)cc(F)c2)NC(=O)Cn2nc(C(F)(F)F)c3c2C(O)CC3)ccc1F (stereo partly drawn) [Example 391, 5-(2-((1S)-2-(3,5-difluorophenyl)-1-(2-(6-hydroxy-3-(trifluoromethyl)-5,6-dihydrocyclopenta[c]pyrazol-1(4H)-yl)acetamido)ethyl)pyridin-3-yl)-2-fluorobenzamide]	60	44800
NC(=O)c1cc(-c2cccnc2C(Cc2cc(F)cc(F)c2)NC(=O)Cn2nc(C(F)F)c3c2C2CC2CC3)ccc1F (stereo not drawn) [Example 392, 5-(2-(1-(2-(3-(difluoromethyl)-5,5a,6,6a-tetrahydrocyclopropa[g]indazol-1(4H)-yl)acetamido)-2-(3,5-difluorophenyl)ethyl)pyridin-3-yl)-2-fluorobenzamide]	105	19100
CCCCNS(=O)(=O)c1ccc(-c2cccnc2[C@H](Cc2cc(F)cc(F)c2)NC(=O)Cn2nc(C(F)F)c3c2C(F)(F)C2CC32)cc1 (stereo partly drawn) [Example 393, (S)—N-(1-(3-(4-(N-butylsulfamoyl)phenyl)-pyridin-2-yl)-2-(3,5-difluorophenyl)ethyl)-2-(3-(difluoromethyl)-5,6-dihydro-4,5-(methano)-6,6-difluoro-cyclopenta[c]pyrazol-1(4H)-yl)acetamide]	54	26100
CC(=O)Nc1ccc(-c2cccnc2[C@H](Cc2cc(F)cc(F)c2)NC(=O)Cc2c[nH]c3ccc(F)cc23)cc1 [Example 394]	14	30800
O=C(Cc1c[nH]c2ccc(F)cc12)N[C@@H](Cc1cc(F)cc(F)c1)c1ncccc1-c1ccccc1Cl [Example 395, (S)—N-(1-(3-(2-chlorophenyl)pyridin-2-yl)-2-(3,5-difluorophenyl)ethyl)-2-(5-fluoro-1H-indol-3-yl)acetamide]	41	11600
O=C(Cc1c[nH]c2ccc(F)cc12)N[C@@H](Cc1cc(F)cc(F)c1)c1ncccc1-c1ccc(Cl)c(Cl)c1 [Example 396, (S)—N-(1-(3-(3,4-dichlorophenyl)pyridin-2-yl)-2-(3,5-difluorophenyl)ethyl)-2-(5-fluoro-1H-indol-3-yl)acetamide]	39	10000
NC(=O)c1cc(-c2cccnc2[C@H](Cc2cc(F)cc(F)c2)NC(=O)Cn2nc(C(F)F)c3c2C2CC(C2)C3=O)ccc1F [Example 397, (S)-5-(2-(2-(3,5-difluorophenyl)-1-(2-(4,5,6,7-tetrahydro-3-difluoromethyl-4-oxo-5,7-(methano)indazol-1-yl)acetamido)ethyl)pyridin-3-yl)-2-fluorobenzamide]	26	> 53200
O=C(Cc1c[nH]c2ccc(F)cc12)N[C@@H](Cc1cc(F)cc(F)c1)c1ncccc1-c1ccccc1-c1ccccc1 [Example 398, (S)—N-(1-(3-(biphenyl-2-yl)pyridin-2-yl)-2-(3,5-difluorophenyl)ethyl)-2-(5-fluoro-1H-indol-3-yl)acetamide]	2	9830
O=C1Cc2cc(-c3cccnc3[C@H](Cc3cc(F)cc(F)c3)NC(=O)Cn3nc(C(F)F)c4c3C(F)(F)C3CC43)ccc2N1 (stereo partly drawn) [Example 400, (S)—N-(1-(3-(oxindole-5-yl)-pyridin-2-yl)-2-(3,5-difluorophenyl)ethyl)-2-(3-(difluoromethyl)-5,6-dihydro-4,5-(methano)-6,6-difluoro-cyclopenta[c]pyrazol-1(4H)-yl)acetamide]	45	23300
CN(C)CCNC(=O)c1cccc(-c2cccnc2[C@H](Cc2cc(F)cc(F)c2)NC(=O)Cn2nc(C(F)(F)F)c3c2CCCC3)c1 [Example 401C, (S)-3-(2-(2-(3,5-difluorophenyl)-1-(2-(3-(trifluoromethyl)-4,5,6,7-tetrahydro-1H-indazol-1-yl)acetamido)ethyl)pyridin-3-yl)-N-(2-(dimethylamino)ethyl)benzamide]	87	9720
O=C(Cc1c[nH]c2ccc(O)cc12)N[C@@H](Cc1cc(F)cc(F)c1)c1ncccc1-c1ccccc1 [Example 402, (S)—N-(2-(3,5-difluorophenyl)-1-(3-phenylpyridin-2-yl)ethyl)-2-(5-hydroxy-1H-indol-3-yl)acetamide]	92	24800
NC(=O)c1cc(-c2cccnc2[C@H](Cc2cc(F)cc(F)c2)NC(=O)Cn2nc(C=O)c3c2C2CCC3C2)ccc1F (stereo partly drawn) [Example 403, (S)-5-(2-(2-(3,5-difluorophenyl)-1-(2-(4,5,6,7-tetrahydro-3-formyl-4,7-(methano)indazol-1-yl)acetamido)ethyl)pyridin-3-yl)-2-fluorobenzamide]	112	10500
Cc1cc(F)ccc1-c1cccnc1[C@H](Cc1cc(F)cc(F)c1)NC(=O)Cc1c[nH]c2ccc(F)cc12 [Example 404, (S)—N-(2-(3,5-difluorophenyl)-1-(3-(4-fluoro-2-methylphenyl)pyridin-2-yl)ethyl)-2-(5-fluoro-1H-indol-3-yl)acetamide]	0	44600
CNC(=O)c1ccc(-c2cccnc2[C@H](Cc2cc(F)cc(F)c2)NC(=O)Cc2c[nH]c3ccc(F)cc23)cc1Cl [Example 405, (S)-2-chloro-4-(2-(2-(3,5-difluorophenyl)-1-(2-(5-fluoro-1H-indol-3-yl)acetamido)ethyl)pyridin-3-yl)-N-methylbenzamide]	11	21100
O=C(Cc1c[nH]c2ccc(F)cc12)N[C@@H](Cc1cc(F)cc(F)c1)c1ncccc1-c1ccc(F)c(F)c1 [Example 406, (S)—N-(2-(3,5-difluorophenyl)-1-(3-(3,4-difluorophenyl)pyridin-2-yl)ethyl)-2-(5-fluoro-1H-indol-3-yl)acetamide]	27	11400
O=C(Cn1nc(C(F)(F)F)c2c1CCCC2)N[C@@H](Cc1cc(F)cc(F)c1)c1ncccc1-c1cnc2[nH]ccc2c1 [Example 407, (S)—N-(1-(3-(1H-pyrrolo[2,3-b]pyridin-5-yl)pyridin-2-yl)-2-(3,5-difluorophenyl)ethyl)-2-(3-(trifluoromethyl)-4,5,6,7-tetrahydro-1H-indazol-1-yl)acetamide]	102	12000
NC(=O)c1cc(-c2cccnc2[C@H](Cc2cc(F)cc(F)c2)NC(=O)Cn2nc(C(=O)O)c3c2C2CCC3C2)ccc1F (stereo partly drawn) [Example 409, (S)-5-(2-(2-(3,5-difluorophenyl)-1-(2-(4,5,6,7-tetrahydro-3-carboxy-4,7-(methano)indazol-1-yl)acetamido)ethyl)pyridin-3-yl)-2-fluorobenzamide]	0	> 53200
O=C(Cn1nc(C(F)F)c2c1C(F)(F)C1CC21)N[C@@H](Cc1cc(F)cc(F)c1)c1ncccc1-c1cccc2cnccc12 (stereo partly drawn) [Example 410, (S)—N-(1-(3-(quinole-5-yl)-pyridin-2-yl)-2-(3,5-difluorophenyl)ethyl)-2-(3-(difluoromethyl)-5,6-dihydro-4,5-(methano)-6,6-difluoro-cyclopenta[c]pyrazol-1(4H)-yl)acetamide]	103	13700
O=C(Cn1nc(C(F)F)c2c1C(F)(F)C1CC21)N[C@@H](Cc1cc(F)cc(F)c1)c1ncccc1-c1ccc2ncccc2c1 (stereo partly drawn) [Example 411, (S)—N-(1-(3-(quinoline-6-yl)-pyridin-2-yl)-2-(3,5-difluorophenyl)ethyl)-2-(3-(difluoromethyl)-5,6-dihydro-4,5-(methano)-6,6-difluoro-cyclopenta[c]pyrazol-1(4H)-yl)acetamide]	53	8980
NC(=O)c1cc(-c2cccnc2[C@H](Cc2cc(F)cc(F)c2)NC(=O)Cc2c[nH]c3ccc(F)cc23)ccc1Cl [Example 412, (S)-2-chloro-5-(2-(2-(3,5-difluorophenyl)-1-(2-(5-fluoro-1H-indol-3-yl)acetamido)ethyl)pyridin-3-yl)benzamide]	80	11100
